Laboratory results reported in patent US7897582B2, “Oligonucleotide compositions and methods for the modulation of the expression of B7 protein” (Isis Pharmaceuticals, Inc., priority 2003, dated 2011).
Strand notation (5' to 3'): a small letter for the sugar, then the base; units joined by * are phosphorothioate-linked, units joined directly phosphodiester-linked; [ ] holds rarer units or linkages, { } end groups; capitals alone tell only the bases. e = 2'-O-(2-methoxyethyl) (MOE); d = 2'-deoxy (DNA)

How the values were obtained:
[1] = mouse, in vivo
Description: Antisense oligonucleotides (ASOs) were dissolved in saline and used to intratracheally dose mice every day, four times per day, from days 15-26 of the OVA sensitization and challenge protocol. Specifically, the mice were anesthetized with isofluorane and placed on a board with the front teeth hung from a line. The nose was covered and the animal's tongue was extended with forceps and […] of various doses of ASO, or an equivalent volume of saline (control) was placed at the back of the tongue until inhaled into the lung.

human B7-1 = assay: Cell surface expression of B7-1 in pcB7-1-transfected COS-7 cells by flow cytometry; assay type: cell-based; details: FIG. 5
Description: The ability of oligonucleotides to inhibit B7-1 expression was evaluated by measuring the cell surface expression of B7-1 in transfected COS-7 cells by flow cytometry.
A T-175 flask was seeded at 75% confluency with COS-7 cells (ATCC accession No. CRL 1651). The plasmid pcB7-1 was introduced into cells by standard calcium phosphate transfection. Following a 4 hour transfection, the cells were trypsinized and seeded in 12-well dishes at 80% confluency. The cells were allowed to adhere to the plastic for 1 hour and were then washed with phosphate-buffered saline (PBS). OptiMEM™ (GIBCO-BRL, Gaithersburg, Md.) medium was added along with 15 μg/mL of Lipofectin™ (GIBCO-BRL, Gaithersburg, Md.) and oligonucleotide at the indicated concentrations. After four additional hours, the cells were washed with phosphate buffered saline (PBS) and incubated with fresh oligonucleotide at the same concentration in DMEM (Dulbecco et al., Virol., 1959, 8, 396; Smith et al., Virol., 1960, 12, 185) with 10% fetal calf sera (FCS).
In order to monitor the effects of oligonucleotides on cell surface expression of B7-1, treated COS-7 cells were harvested by brief trypsinization 24-48 hours after oligonucleotide treatment. The cells were washed with PBS, then resuspended in 100 μL of staining buffer (PBS, 0.2% BSA, 0.1% azide) with 5 μL conjugated anti-B7-1-antibody (i.e., anti-hCD80-FITC, Ancell, Bayport, Minn.; FITC: fluorescein isothiocyanate). The cells were stained for 30 minutes at 4° C., washed with PBS, resuspended in 300 μL containing 0.5% paraformaldehyde. Cells were harvested and the fluorescence profiles were determined using a flow cytometer.
B7 antisense oligonucleotides were tested for their effect on cell surface expression of both B7-1 and B7-2. Cell surface expression was measured as described in Example 1. Experiments were done for both human B7 and mouse B7.
The oligonucleotides were screened as described in Example 2 except that the concentration of oligonucleotide was varied as shown in Table 18.

CD3 = CD3 cell surface expression in antigen presenting cells, flow cytometry; assay type: cell-based, human
Description: (§1) Monocytes were cultured and treated with oligonucleotides as follows. For dendritic cells, EDTA-treated blood was layered onto Polymorphprep™ (1.113 g/mL; Nycomed, Oslo, Norway) and sedimented at 500×g for 30 minutes at 20° C. Mononuclear cells were harvested from the interface. Cells were washed with PBS, with serum-free RPMI media (Moore et al., N.Y. J. Med., 1968, 68, 2054) and then with RPMI containing 5% fetal bovine serum (FBS). Monocytes were selected by adherence to plastic cell culture cell culture dishes for 1 h at 37° C. After adherence, cells were treated with oligonucleotides in serum-free RPMI containing Lipofectin™ (8 μg/mL). After 4 hours, the cells were washed. Then RPMI containing 5% FBS and oligonucleotide was added to cells along with interleukin-4 (IL-4; R&D Systems, Minneapolis, Minn.) (66 ng/mL) and granulocyte-macrophage colony-stimulating factor (GM-CSF; R&D Systems, Minneapolis, Minn.) (66 ng/mL) to stimulate differentiation (Romani et al., J. Exp. Med., 1994, 180, 83, 1994). Cells were incubated for 48 hours, after which cell surface expression of various molecules was measured by flow cytometry.
(§2) Mononuclear cells isolated from fresh blood were treated with oligonucleotide in the presence of cationic lipid to promote cellular uptake. […] Expression of B7-2 protein was measured by flow cytometry according to the methods of Example 2. […]

HLA-DR = HLA-DR cell surface expression in antigen presenting cells, flow cytometry; assay type: cell-based, human
Description: as §1, §2

B7-2 = B7-2 expression in antigen presenting cells (blood monocytes with IL-4 and GM-CSF), flow cytometry; assay type: cell-based, human; details: FIG. 6
Description: The ability of ISIS 10373 to inhibit expression from the native B7-2 gene in antigen presenting cells (APCs) was evaluated as follows.
as §1, with “Then RPMI containing 5% FBS and oligonucleotide was added to cells along with interleukin-4 (IL-4; R&D Systems, Minneapolis, Minn.) (66 ng/mL) and granulocyte-macrophage colony-stimulating factor (GM-CSF; R&D Systems, Minneapolis, Minn.) (66 ng/mL) to stimulate differentiation (Romani et al., J. Exp. Med., 1994, 180, 83, 1994).” left out
as §2

ICAM-1 = ICAM-1 expression in antigen presenting cells, flow cytometry; assay type: cell-based, human
Description: as §1, §2

human B7-2 = assay: Cell surface expression of B7-2 in transfected COS-7 cells by flow cytometry; assay type: cell-based
In short: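 COS-7 cells transfected with B7-2 plasmid (calcium phosphate), then treated with antisense oligonucleotides with 15 μg/mL Lipofectin for 4 h, followed by oligonucleotide in DMEM/10% FCS. After 24-48 h, cells stained with FITC- or PE-conjugated anti-CD86 for 30 min at 4 °C and analysed by flow cytometry.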

CD4+ T cells = assay: T cell proliferation assay, [3H]thymidine incorporation, oligonucleotide-treated APCs plus CD4+ T cells; assay type: cell-based, human; details: APCs treated before cytokine induction; FIG. 7
Description: The ability of ISIS 2302 and ISIS 10373 to inhibit T cell proliferation was evaluated as follows. Monocytes treated with oligonucleotide and cytokines (as in Example 6) were used as antigen presenting cells in a T cell proliferation assay. The differentiated monocytes were combined with CD4+ T cells from a separate donor. After 48 hours, proliferation was measured by [^3H]thymidine incorporation.
For T cell proliferation assays, cells were isolated from EDTA-treated whole blood as described above, except that a faster migrating band containing the lymphocytes was harvested from just below the interface. Cells were washed as described in Example 6 after which erythrocytes were removed by NH4Cl lysis. T cells were purified using a T cell enrichment column (R&D Systems, Minneapolis, Minn.) essentially according to the manufacturer's directions. CD4+ T cells were further enriched from the entire T cell population by depletion of CD8+ cells with anti-CD8-conjugated magnetic beads (AMAC, Inc., Westbrook, Me.) according to the manufacturer's directions. T cells were determined to be >80% CD4+ by flow cytometry using Cy-chrome-conjugated anti-CD4 mAb (PharMingen, San Diego, Calif.).
Antigen presenting cells (APCs) were isolated as described in Example 6 and treated with mitomycin C (25 μg/mL) for 1 hour then washed 3 times with PBS. APCs (10^5 cells) were then combined with 4×10^4 CD4+ T cells in 350 μL of culture media. Where indicated, purified CD3 mAb was also added at a concentration of 1 μg/mL. During the last 6 hours of the 48 hour incubation period, proliferation was measured by determining uptake of 1.5 μCi of [^3H]-thymidine per well. The cells were harvested onto filters and the radioactivity measured by scintillation counting.

B7-1 = B7-1 cell surface expression in antigen presenting cells, flow cytometry; assay type: cell-based, human
Description: as §1, §2

B7.1 mRNA = B7.1 mRNA in lung and draining lymph nodes of ovalbumin-challenged mice, quantitative RT-PCR; assay type: in vivo, mouse; details: lung tissue and draining lymph nodes of allergen-challenged mice
Description: (§3) RNA was harvested from experimental lungs removed on day 28 of the OVA protocol. B7.2 and B7.1 levels were measured by quantitative RT-PCR using the Applied Biosystems PRISM 7700 Sequence Detection System (Applied Biosystems, Foster City, Calif.). Primers and probes used for these studies were synthesized by Operon Technologies (Alameda, Calif.).

B7-1 mRNA = assay: Mouse B7-1 target mRNA reduction in L-929 fibroblasts (RT-PCR); assay type: cell-based; details: 100 nM
Description: Both of these oligonucleotides are phosphorothioates with 2′-MOE modifications on nucleotides 1-5 and 16-20, and 2′-deoxy at positions 6-15. These ASOs were identified by mouse-targeted ASO screening by target mRNA reduction in mouse cell lines. For B7-2, 19 mouse-targeted ASOs were screened by target mRNA reduction (Northern analysis) in IC-21 macrophages. Dose-response confirmation led to selection of ISIS 121874 (>70% reduction at 25 nM). For B7-1, 22 mouse-targeted ASOs were screened by target mRNA reduction (RT-PCR) in L-929 fibroblasts. Dose-response confirmation led to selection of ISIS 121844 (>70% reduction at 100 nM). No cross hybridization was predicted, and no cross-target reduction was detected in transfected cells.

B7.2 mRNA = B7.2 mRNA in lung and draining lymph nodes of ovalbumin-challenged mice, quantitative RT-PCR; assay type: in vivo, mouse
Description: as §3

[2] = tested on: ovalbumin-challenged Balb/c mice; assay: Ovalbumin-induced mouse model of allergic inflammation (Penh, BAL cells, histology, cytokines, spleen); assay type: in vivo
Description: In the mouse model of allergic inflammation, mice were sensitized and challenged with aerosolized chicken ovalbumin (OVA). Airway responsiveness was assessed by inducing airflow obstruction with a methacholine aerosol using a noninvasive method. This methodology utilized unrestrained conscious mice that are placed into the main chamber of a plthysmograph (Buxco Electronics, Inc., Troy, N.Y.). Pressure differences between this chamber and a reference chamber were used to extrapolate minute volume, breathing frequency and enhanced pause (Penh). Penh is a dimensionless parameter that is a function of total pulmonary airflow in mice (i.e., the sum of the airflow in the upper and lower respiratory tracts) during the respiratory cycle of the animal. The lower the Penh, the greater the airflow. This parameter closely correlates with lung resistance as measured by traditional invasive techniques using ventilated animals (Hamelmann . . . Gelfand, 1997). Dose-response data were plotted as raw Penh values to increasing concentrations of methacholine. […]
Female Balb/c mice (Charles Rivers Laboratory, Taconic Farms, N.Y.) were maintained in micro-isolator cages housed in a specific pathogen-free (SPF) facility. […] Animals were analyzed about 24 hours following the last nebulization using the Buxco electronics Biosystem. Lung function (Penh), lung histology (cell infiltration and mucus production), target mRNA reduction in the lung, inflammation (BAL cell type & number, cytokine levels), spleen weight and serum AST/ALT were determined. […]
Cytospins of cells recovered from BAL fluid were prepared using a Shandon Cytospin 3 (Shandon Scientific LTD, Cheshire, England). […] Total cell counts were quantified by hemocytometer and, together with the percent type by differential, were used to calculate specific cell number.
Before resection, lungs were inflated with 0.5 ml of 10% phosphate-buffered formalin and fixed overnight at 4° C. […] Parasagittal sections were analyzed by bright-field microscopy. Mucus cell content was assessed as the airway epithelium staining with PAS. […]

## 5′-TCCGTCATCGCTCCTCAGGG-3′ [ISIS 13920]
[1]
  deposition pattern in the lung: taken up throughout the lung, most strongly by antigen presenting cells (APCs) and alveolar epithelium

## ISIS 10373: phosphorothioate 20-mer to human B7-2 mRNA 0011-0030; 5′-UTR; SEQ ID NO: 16 (antisense dT*dG*dC*dG*dA*dG*dC*dT*dC*dC*dC*dC*dG*dT*dA*dC*dC*dT*dC*dC)
Human B7-1
  effect on B7-1 expression (specificity): little or no effect
CD3
  cell surface expression of CD3: did not affect
HLA-DR
  cell surface expression of HLA-DR: did not affect
B7-2
  IC50: ~250 nM
ICAM-1; dose of 1 μM
  effect on ICAM-1 expression: only a slight effect
Human B7-2; FIG. 5
  effect on B7-2 expression (specificity): inhibits B7-2 expression
CD4+ T cells
  T cell proliferative response: blocked
B7-1
  cell surface expression of B7-1: did not affect

## ISIS 2302: antisense oligonucleotide targeted to ICAM-1, an inhibitor of ICAM-1 expression; SEQ ID NO: 17 (antisense GCCCAAGCTGGCATCCGTCA; listed as DNA, chemistry not given here) [reference compound]
B7-2
  effect on B7-2 expression: no effect
ICAM-1; antigen presenting cells, FIG. 6, read-out: IC50, ICAM-1 levels
  IC50: ~250 nM
CD4+ T cells
  T cell proliferative response: blocked

## ISIS 10721: scrambled # 10373; SEQ ID NO: 82 (antisense dC*dG*dA*dC*dA*dG*dC*dT*dC*dC*dT*dG*dC*dG*dC*dT*dC*dC*dT*dC) [reference compound]
Human B7-2; 200 nM, FIG. 3
  inhibitory activity on B7-2 cell surface expression: no inhibitory activity
CD4+ T cells
  T cell proliferative response: insignificant effect

## ISIS 121844: antisense oligonucleotide targeted to mouse B7.1; SEQ ID NO: 286; phosphorothioate, 2′-MOE on nucleotides 1-5 and 16-20 (antisense GCTCAGCCTTTCCACTTCAG; sugars from the 5' end e5 d10 e5, all phosphorothioate, methylation of C not given here)
B7.1 mRNA
  B7.1 mRNA: reduced
B7-1 mRNA
  target mRNA reduction: > 70%
B7.2 mRNA; lung
  reduction of B7.2 mRNA in the lung: 80%
B7.2 mRNA; lung tissue and draining lymph nodes of allergen-challenged mice
  B7.2 mRNA: reduced
[2]; BAL fluid
  allergen-induced airway eosinophilia: reduced
[2]; intratracheal ASO, days 15-26
  airway response to methacholine (Penh response): no effect
[2]; mouse, in vivo
  PMN numbers in BAL fluid: reduced
